ChEMBL document CHEMBL1158966, “Chemical characterization and pharmacological activity of nazlinin, a novel indole alkaloid from Nitraria schoberi” (1991)
Calls of active or inactive are those of the source. The calls are words filed in the database; no cut-off is given here.

Key:
[1] = (§1) Contractile activity in rabbit celiac artery; format: functional, Oryctolagus cuniculus
Oryctolagus cuniculus [2] = organism: Oryctolagus cuniculus; assay: as §1; format: functional
[3] = (§2) Contractile activity in rabbit mesenteric artery; format: functional, Oryctolagus cuniculus
Oryctolagus cuniculus [4] = organism: Oryctolagus cuniculus; assay: as §2; format: functional
[5] = Contractile activity in rabbit celiac arteries relative to control; format: functional; conditions: Oryctolagus cuniculus, Celiac artery
[6] = Contractile activity in rabbit mesenteric arteries relative to control; format: functional; conditions: Oryctolagus cuniculus, Mesenteric artery
Oryctolagus cuniculus [7] = organism: Oryctolagus cuniculus; assay: Vasorelaxant activity against PGF2-alpha-induced contraction in endothelium-intact rabbit aortic rings up to 40 nmol; format: functional, tissue-based; conditions: Aorta
Aorta [8] = assay: Contractile activity in endothelium-intact rabbit aortic rings at >40 nmol to 400 nmol; format: functional, tissue-based; conditions: Oryctolagus cuniculus
Oryctolagus cuniculus [9] = organism: Oryctolagus cuniculus; assay: Vasorelaxant activity against PGF2-alpha-induced contraction in endothelium-denuded rabbit aortic rings at 0.04 to 400 nmol; format: functional, tissue-based; conditions: Aorta
Oryctolagus cuniculus [10] = organism: Oryctolagus cuniculus; assay: Vasorelaxant activity against PGF2-alpha-induced contraction in endothelium-intact rabbit aortic rings in presence of ketanserin tartrate; format: functional, tissue-based; conditions: Aorta
Aorta [11] = assay: Contractile activity in endothelium-intact rabbit aortic rings in presence of ketanserin tartrate; format: functional, tissue-based; conditions: Oryctolagus cuniculus
Oryctolagus cuniculus [12] = organism: Oryctolagus cuniculus; assay: Vasorelaxant activity against PGF2-alpha-induced contraction in endothelium-intact rabbit aortic rings in presence of indomethacin; format: functional, tissue-based; conditions: Aorta
Oryctolagus cuniculus [13] = organism: Oryctolagus cuniculus; assay: Vasorelaxant activity against PGF2-alpha-induced contraction in endothelium-intact rabbit aortic rings in presence of prazosin; format: functional, tissue-based; conditions: Aorta
Oryctolagus cuniculus [14] = organism: Oryctolagus cuniculus; assay: Vasorelaxant activity against PGF2-alpha-induced contraction in endothelium-intact rabbit aortic rings in presence of phentolamine; format: functional, tissue-based; conditions: Aorta
Oryctolagus cuniculus [15] = organism: Oryctolagus cuniculus; assay: Vasorelaxant activity against PGF2-alpha-induced contraction in endothelium-intact rabbit aortic rings in presence of propranolol hydrochloride; format: functional, tissue-based; conditions: Aorta
Oryctolagus cuniculus [16] = organism: Oryctolagus cuniculus; assay: Vasorelaxant activity against PGF2-alpha-induced contraction in endothelium-intact rabbit aortic rings in presence of atropine sulfate; format: functional, tissue-based; conditions: Aorta

## NC1CCCCNCCc2c1[nH]c1ccccc21 (stereo not given) [NAZLININ]
[1]
  ED50: 115 nmol
Oryctolagus cuniculus [2]
  Activity: Dose-dependent effect
[3]
  ED50: 70 nmol
Oryctolagus cuniculus [4]
  Activity: Dose-dependent effect
[5]
  Emax: 71%
[6]
  Emax: 83%
Oryctolagus cuniculus [7]
  Activity: Active
Aorta [8]
  Activity: Active
Oryctolagus cuniculus [9]
  Activity: inactive
Oryctolagus cuniculus [10]
  Activity: Active
Aorta [11]
  Activity: inactive
Oryctolagus cuniculus [12]
  Activity: Active
Oryctolagus cuniculus [13]
  Activity: Active
Oryctolagus cuniculus [14]
  Activity: Active
Oryctolagus cuniculus [15]
  Activity: Active
Oryctolagus cuniculus [16]
  Activity: Active

## NCCc1c[nH]c2ccc(O)cc12 [SEROTONIN]
[1]
  ED50: 0.156 nmol
Oryctolagus cuniculus [2]
  Activity: Dose-dependent effect
[3]
  ED50: 0.126 nmol
Oryctolagus cuniculus [4]
  Activity: Dose-dependent effect
[5]
  Emax: 110%
[6]
  Emax: 108%
Oryctolagus cuniculus [7]
  Activity: Active
Aorta [8]
  Activity: Active
Oryctolagus cuniculus [9]
  Activity: inactive
